Laboratory results: ChEMBL document CHEMBL1129827, “Discovery of imidazo[1,2-c]pyrimidin-5(6H)-one heterosubstituted nucleoside analogues with potent activity against human hepatitis B virus in vitro” (Bioorg Med Chem Lett, 1997)
Active and inactive are the calls of the source. The calls are words filed in the database; no cut-off is given here.

How the values were obtained:
HepG2 [1] = experiment: Compound concentration required to inhibit 50% of extracellular replicating HBV (Hepatitis B virus) virion in human hepatoma cell line 2.2.15; type: functional, cell-based
[2] = Selectivity index (SI) is the ratio of CC50/EC90 for HBV virion; type: functional
HepG2 [3] = experiment: Compound concentration required to inhibit 90% of extracellular replicating HBV (Hepatitis B virus) virion in human hepatoma cell line 2.2.15; type: functional
[4] = Compound concentration that cause 50% cytotoxicity was determined by neutral red uptake in 2.2.15 Cells; type: cell-based, HepG2 2.2.15; settings: human
HepG2 [5] = experiment: Compound concentration required to inhibit 50% of intracellular replicating HBV (Hepatitis B virus) RI in human hepatoma cell line 2.2.15; type: functional, cell-based
[6] = Selectivity index (SI) is the ratio of CC50/EC90 for HBV RI; type: functional
HepG2 [7] = experiment: Compound concentration required to inhibit 90% of intracellular replicating HBV (Hepatitis B virus) RI in human hepatoma cell line 2.2.15; type: functional
MT4 [8] = experiment: Compound was evaluated for the inhibition of replication of HIV-1 in MT-4 (human T helper) cells up to 300 uM; Not active; type: functional, cell-based
MT4 [9] = experiment: Compound was evaluated for the inhibition of replication of HIV-1 in MT-4 (human T helper) cells up to 300 uM; not active; type: functional, cell-based

Row | Structure (SMILES) | EC50 (HepG2 [1]) [µM] | SI [2] | EC90 (HepG2 [3]) [µM] | CC50 [4] [µM] | EC50 (HepG2 [5]) [µM] | SI [6] | EC90 (HepG2 [7]) [µM] | Activity (MT4 [8]) | Activity (MT4 [9])
1 | O=c1n([C@H]2CO[C@@H](CO)O2)ccc2nc(-c3ccc([N+](=O)[O-])cc3)cn12 | 2.3 | 45 | 10.9 | 486 | – | – | – | – | –
2 | O=c1n([C@H]2CO[C@H](CO)O2)cc(F)c2nc(-c3ccc([N+](=O)[O-])cc3)cn12 | 3.7 | 46 | 8.8 | 587 | 12.8 | 24 | 25 | inactive | –
3 | O=c1n(C2COC(CO)O2)ccc2nc(-c3ccc(F)cc3)cn12 (stereo not given) | 4.2 | 34 | 25.2 | 850 | – | – | – | – | –
4 | O=c1n([C@H]2CO[C@H](CO)O2)ccc2nc(-c3ccc([N+](=O)[O-])cc3)cn12 | 12.5 | 5.7 | 108 | 517 | – | – | – | inactive | –
5 | O=c1n(C2COC(CO)O2)ccc2nc(CO)cn12 (stereo not given) | 2 | 59 | 10.5 | 618 | – | – | – | – | –
6 | O=c1n([C@H]2CO[C@@H](CO)O2)cc(F)c2nc(-c3ccc([N+](=O)[O-])cc3)cn12 | 1.9 | 180 | 5.9 | 1390 | 7.7 | 103 | 13.6 | – | –
7 | Nc1ccn([C@H]2CC[C@@H](CO)O2)c(=O)n1 [ZALCITABINE] | 1.5 | – | 6.9 | 233 | 3.2 | 23 | 10 | – | –
8 | CCOC(=O)c1cn2c(=O)n(C3CSC(CO)O3)ccc2n1 (stereo not given) | > 90 | – | > 90 | > 90 | – | – | – | – | –
9 | O=c1n([C@H]2CO[C@H](CO)O2)cc(F)c2nc(CO)cn12 | > 105 | – | > 105 | 1390 | – | – | – | – | –
10 | O=c1n([C@H]2CO[C@@H](CO)O2)cc(F)c2nc(CO)cn12 | 15.1 | 36 | 33.3 | 1060 | 29.1 | 16 | 66.6 | – | –
11 | O=c1n(C2CSC(CO)O2)ccc2nc(CO)cn12 (stereo not given) | 77.7 | 1.7 | 276 | 456 | – | – | – | – | inactive
12 | O=c1n(C2CSC(CO)O2)ccc2nc(-c3ccc([N+](=O)[O-])cc3)cn12 (stereo not given) | 4.8 | > 5.6 | – | > 26.7 | – | – | – | inactive | –
